# Measured values: paper PMC9029893 (International Journal of Molecular Sciences, 2022)
# Tests used:
# [1] = system: AoSMC cells; assay: WST-1 cell viability assay, AoSMC; details: Homo sapiens, 24 h, read-out: Viability-IC50, AoSMC cells
# Procedure: (§1) HUVEC and AoSMC viability were tested using the WST-1 cell viability assay (Takara Bio Europe, Saint-Germain-en-Laye, France). […] Briefly, HUVEC and AoSMC were seeded at densities of 7500 and 5000 cells per well on 96-well plates. The cells were cultivated for up to 24 h to achieve 70% confluency, and subsequently treated with tested compounds diluted in medium (1 + 9; v = 100 μL) or pure medium (control). The plates were incubated at 37 °C (5% CO2) for the next 24 h. Then, the cells were rinsed with 100 μL culture medium, and WST-1 reagent diluted in medium (100 μL) was added; the plates were then incubated again (37 °C, 5% CO2) for another 90 min. The absorbance was measured at 450 nm (iMARK, Bio-Rad, Hercules, CA, USA). The experiments were performed in multiplicate (n = 8) and the results were presented as mean ± SD. The cell viability was expressed as a percentage of the control samples, which constituted 100% viability. […] The variability coefficient of the method was estimated (CV(HUVEC) = 8.94%, n = 8; CV(AoSMC) = 5.84%, n = 10).
# [2] = system: HUVEC cells; assay: Glucose utilization assay (2-NBDG uptake); type: cell-based, human; details: 24 h, then insulin and 2-NBDG
# Procedure: HUVEC were seeded at a density of 20,000 cells per well in 48-well plates, and were cultured in standard conditions for 24 h (medium EGM-2; volume 0.2 mL). Following this, compounds 1–8 were added at concentrations of 0.1 and 0.3 mM, and the HUVECs were incubated for another 24 h. Cells treated with ᴅ-glucose (final concentration in a sample 0.1 mM) were used as positive controls. On the following day, the cells were rinsed with PBS (Biomed Lublin, Lublin, Poland) and cultured for two hours in glucose-free DMEM medium supplemented with 1% BSA (bovine serum albumin, Sigma, St. Louis, MO, USA). Then, the cells were co-treated with insulin (final concentration 0.0001 mM) for 30 min. Afterwards, the medium was discarded and the cells were treated with 2-NBDG (final concentration 0.05 mM) for 30 min, followed by removal of the solutions of each well. The cells were washed twice with 100 µL PBS, and lysed using 1% Triton X-100 solution in PBS. The fluorescence was recorded using a microplate reader (Biotek, Instruments, Winooski, VT, USA) at 480/530 nm.
# The concentration of intracellular 2-NBDG was calculated using a calibration curve obtained using 2-NBDG at concentrations ranging from 0.0001 to 0.025 mM in lysis buffer. The results are presented as mean ± SD, n = 4–6. The coefficient of variation for the assay was calculated (CV = 2.2%, n = 8).
# [3] = WST-1 cell viability assay, HUVEC; details: human, HUVEC cells
# Procedure: as §1
# [4] = system: HUVEC cells; assay: HUVEC integrity in RTCA-DP system (normalized cell index); type: cell-based, human
# Procedure: The effects of sulfonamides 1–8 on the integrity and barrier properties of HUVEC were examined in real-time using a cell electric impedance monitoring system (Real-Time Cell Analyzer; Roche & ACEA Biosciences, Santa Clara, CA, USA), which is based on tracking electrical impedance signals. Any changes in cell status, adhesion, and morphology are expressed by parameter Cell Index (CI). The experimental protocol has been described previously. Briefly, the cells were seeded at a density of 15,000 cells per well on E-16 plates (Roche & ACEA Biosciences, Santa Clara, CA, USA), and cultured until the cells achieved plateau phase. Then, the medium was discarded from each well, and the solutions of the test compounds dissolved in cell culturing medium (100 μL) or pure medium (100 μL, control) were added. The measurements were then carried out for 48 h. The results are presented as mean ± SD of ‘normalized cell index’ (nCI), which is calculated by the division of a CI value at a certain time point by the CI value at a reference time point. The experiments were conducted in multiplicate (n = 4–6). The method was validated and the coefficient of variability (CV) was calculated as 9.17%–15.2%, depending on the measured time point (n = 6).
# [5] = target: antithrombin III (AT) (Homo sapiens, UniProt P01008); assay: Activity of antithrombin III (AT); type: biochemical
# Procedure: The activity of AT in human plasma was estimated spectrophotometrically using a diagnostic laboratory method. […] In the control samples, 10 μL of distilled water and methanol (1:1) was used. The reaction was initiated by the addition of a chromogenic substrate dissolved in water for injection; as a result, p-nitroaniline was released proportionally to the level of AT. The evaluation of AT level was performed on the basis of a calibration curve performed on calibrator diluted in the range 1:30–1:120 (λ = 405 nm) by the coagulometer program (CoagChrom-3003 Bio Ksel, Grudziadz, Poland). The coefficient of variability for the method (CV) was 2.69%, and the reference range was 80%–130%.
# [6] = WST-1 cell viability assay, AoSMC; details: human, AoSMC cells
# Procedure: as §1
# [7] = system: HUVEC cells; assay: WST-1 cell viability assay, HUVEC; details: for Decrease of HUVECs viability (growth inhibition): 0.3 mM, vs control; for IC50: Homo sapiens, HUVEC, 24 h, read-out: Viability-IC50, HUVEC cells
# Procedure: as §1
# Sequence of antithrombin III (AT) (P01008 33-464): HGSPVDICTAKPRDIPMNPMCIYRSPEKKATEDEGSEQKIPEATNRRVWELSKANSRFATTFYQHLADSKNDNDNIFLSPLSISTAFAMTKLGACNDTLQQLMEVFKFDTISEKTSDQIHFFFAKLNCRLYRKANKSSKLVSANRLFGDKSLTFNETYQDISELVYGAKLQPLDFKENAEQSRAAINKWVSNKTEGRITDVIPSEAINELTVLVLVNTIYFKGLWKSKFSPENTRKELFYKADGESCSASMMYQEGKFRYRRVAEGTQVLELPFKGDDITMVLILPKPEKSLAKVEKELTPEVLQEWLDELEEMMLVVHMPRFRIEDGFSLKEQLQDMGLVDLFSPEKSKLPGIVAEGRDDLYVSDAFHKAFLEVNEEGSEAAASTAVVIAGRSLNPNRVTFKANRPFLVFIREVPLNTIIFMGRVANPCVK
activity of AT III ([5]; 0.06 mM) [%],activity of AT III ([5]; 0.3 mM) [%],activity of AT III ([5]; 0.6 mM) [%],activity of AT III ([5]; 1.5 mM) [%],SMILES,Glucose uptake (intracellular 2-NBDG) ([2]; 0.1 mM) [mM],Glucose uptake (intracellular 2-NBDG) ([2]; 0.3 mM) [mM],"viability at 24 h, 0.06 mM [3] [%]","viability at 24 h, 0.3 mM [3] [%]","normalized Cell Index (nCI) ([4]; 0.3 mM, 3 hours)","normalized Cell Index (nCI) ([4]; 0.3 mM, 6 hours)","normalized Cell Index (nCI) ([4]; 0.3 mM, 12 hours)","normalized Cell Index (nCI) ([4]; 0.3 mM, 24 hours)","normalized Cell Index (nCI) ([4]; 0.3 mM, 36 hours)","normalized Cell Index (nCI) ([4]; 1.0 mM, 3 hours)","normalized Cell Index (nCI) ([4]; 1.0 mM, 6 hours)","normalized Cell Index (nCI) ([4]; 1.0 mM, 12 hours)","normalized Cell Index (nCI) ([4]; 1.0 mM, 24 hours)","normalized Cell Index (nCI) ([4]; 1.0 mM, 36 hours)","viability at 24 h, 3 mM [6] [%]",Decrease of HUVECs viability (growth inhibition) [7],also measured
121.00 ± 4.90,127.75 ± 10.44,125.75 ± 10.87,129.00 ± 11.46,CCCCCCCCS(=O)(=O)NC(N)=NC(=N)N(C)C [Compound 2],0.0139 ± 0.0003,0.0146 ± 0.001,75.9 ± 5.85,71.5 ± 3.12,0.608 ± 0.038,0.693 ± 0.022,0.676 ± 0.047,0.522 ± 0.030,0.761 ± 0.008,0.652 ± 0.006,0.706 ± 0.007,0.719 ± 0.005,0.731 ± 0.002,0.379 ± 0.032,–,–,"IC50 [1]: 3.71 ± 0.54 mM; viability at 24 h, 3 mM [3]: 41.5%; viability at 24 h, 5 mM [3]: 32.1%"
110.25 ± 8.34,115.25 ± 6.18,120.00 ± 2.71,123.00 ± 5.2,CCCCS(=O)(=O)NC(N)=NC(=N)N(C)C [Compound 1],0.0134 ± 0.0004,0.0142 ± 0.0007,76.3 ± 9.19,71 ± 8.45,0.832 ± 0.091,0.981 ± 0.085,1.177 ± 0.149,1.207 ± 0.149,0.875 ± 0.090,0.440 ± 0.032,0.676 ± 0.062,0.791 ± 0.067,0.940 ± 0.077,0.858 ± 0.054,> 59,approximately 28.96%,IC50 [7]: 3.64 ± 0.26 mM
113.00 ± 10.13,117.25 ± 5.50,131.75 ± 6.65,136.75 ± 11.32,CN(C)C(=N)N=C(N)NS(=O)(=O)C1CCCCC1 [Compound 3],0.0137 ± 0.0003,0.0144 ± 0.0005,–,–,0.680 ± 0.083,0.837 ± 0.213,0.927 ± 0.212,0.969 ± 0.156,0.714 ± 0.035,0.233 ± 0.039,0.554 ± 0.047,0.616 ± 0.042,0.748 ± 0.061,0.694 ± 0.054,> 76,~24.15%,IC50 [7]: 3.51 ± 0.24 mM
